According to PMC7954794, “Protein context shapes the specificity of SH3 domain-mediated interactions in vivo” (Nature Communications, 2021):

What was measured:
Type in all cases: cell-based, Saccharomyces cerevisiae
ABP1 = experiment: DHFR-PCA on solid medium, bait ABP1 (Fig. 1B); conditions: bait ABP1, label = prey; 2-4 replicates
From the text: (§1) Supplement 41467_2021_21873_MOESM8_ESM.xlsx, sheet "Fig1B" | column: medsize; medrep; Ratio; Score

BBC1 = experiment: DHFR-PCA on solid medium, bait BBC1 (Fig. 1B); conditions: bait BBC1, label = prey; 2-4 replicates
From the text: as §1

BEM1-1 = experiment: DHFR-PCA on solid medium, bait BEM1-1 (Fig. 1B); conditions: bait BEM1-1, label = prey; 2-8 replicates
From the text: as §1

BEM1-2 = experiment: DHFR-PCA on solid medium, bait BEM1-2 (Fig. 1B); conditions: bait BEM1-2, label = prey; 2-8 replicates
From the text: as §1

BOI1 = experiment: DHFR-PCA on solid medium, bait BOI1 (Fig. 1B); conditions: bait BOI1, label = prey
From the text: as §1

BOI2 = experiment: DHFR-PCA on solid medium, bait BOI2 (Fig. 1B); conditions: bait BOI2, label = prey; 3-8 replicates
From the text: as §1

BUD14 = experiment: DHFR-PCA on solid medium, bait BUD14 (Fig. 1B); conditions: bait BUD14, label = prey; 4 replicates
From the text: as §1

BZZ1-1 = experiment: DHFR-PCA on solid medium, bait BZZ1-1 (Fig. 1B); conditions: bait BZZ1-1, label = prey; 4 replicates
From the text: Supplement 41467_2021_21873_MOESM8_ESM.xlsx, sheet "Fig1B" | column: medsize; medrep; Score

YAL005C
medrep (log2 median colony size normalized to plate background, PCA score) (ABP1): 5.43 | medrep (log2 median colony size normalized to plate background, PCA score) (BBC1): 5.353 | medrep (log2 median colony size normalized to plate background, PCA score) (BEM1-1): 4.321 | medrep (log2 median colony size normalized to plate background, PCA score) (BEM1-2): 4.321 | medrep (log2 median colony size normalized to plate background, PCA score) (BOI1; 3-8 replicates): 3.321 | Ratio (SH3-deleted/WT medrep) (BOI1; only significant differences showed, PPIs completely lost have a ratio of 0.1 and the gained PPIs 2.5): 1.412 | medrep (log2 median colony size normalized to plate background, PCA score) (BOI2): 4.382 | medrep (log2 median colony size normalized to plate background, PCA score) (BUD14): 4.297 | medrep (log2 median colony size normalized to plate background, PCA score) (BZZ1-1): 4.381
